Test results: publication PMC6315694, “Synthesis of Pseudellone Analogs and Characterization as Novel T-type Calcium Channel Blockers” (Marine Drugs, 2018)

Biological target: T1, human CaV3.1 (Homo sapiens, UniProt O43497)
T1 construct: expressed in transfected cells; host or cells: HEK 293T, transient transfection (FuGENE HD)
Experiment: T-type calcium channel window current FLIPR assay, CaV3.1
Format: cell-based
Procedure: The human embryonic kidney 293 (HEK 293) cell lines (from Emmanuel Bourinet, Montpellier, France) stably expressing CaV3.2 or CaV3.3 were cultured under 5% carbon dioxide at 37 °C in Dulbecco’s Modified Eagle Medium (DMEM) Glutamax (Gibco, Life Technologies, Carlsbad, CA, USA) supplemented with 10% (v/v) fetal bovine serum (FBS), 100 U/mL penicillin, 100 μg/mL streptomycin (Gibco, Life Technologies), and 750 μg/mL geneticin (G418) (Gibco, Life Technologies). The Chinese Hamster Ovary (CHO) cell lines (Emmanuel Bourinet, Montpellier, France) expressing CaV3.1 were cultured under 5% carbon dioxide at 37 °C in Alpha Minimum Essential Media (MEM) Glutamax (Gibco, Life Technologies), supplemented with 10% (v/v) fetal bovine serum (FBS) and 300 μg/mL geneticin (G418) (Gibco, Life Technologies). The human neuroblastoma SH-SY5 Y cells (Victor Diaz, Goettingen, Germany) were cultured under 5% carbon dioxide at 37 °C in RPMI 1640 antibiotic-free medium (Invitrogen, Carlsbad, CA, USA), supplemented with 15% FBS and 2 mM GlutaMAX™ (Invitrogen). D-PBS (Gibco, Life Technologies) was used to wash the cells, and 0.25% Trypsin-EDTA (Gibco, Life Technologies) was used to detach cells from the flask surface. They were split in a ratio of 1:5 (ideally 1000 cells/cm^2) when they reached 70%–80% confluence (every 2–3 days). Transiently transfected CaV3.1HEK293 T cells were used in FLIPR Assays. HEK 293 T cells were cultured under 5% carbon dioxide at 37 °C in DMEM supplemented with 10% (v/v) FBS. D-PBS was used to wash the cells, and 0.25% Trypsin-EDTA was used to detach cells from the flask surface. The cells were split and seeded at 6 million cells per T175 flask, to reach 70%–80% confluence after 24 h. The next day, 12 μg DNA of human CaV3.1 was incubated in 900 μL serum-free DMEM with 36 μL FuGENE HD transfection reagent (Promega Corporation, Madison, WI, US) (1:3 DNA/Fugene ratio) for 20 min, and then the mixture was added into the cell flask slowly, drop by drop. After the transfection, the cells were cultured under 5% carbon dioxide at 37 °C for 24 h and then moved to a 28 °C incubator.
HEK 293 cells stably expressing CaV3.2 or CaV3.3 were seeded into 384-well black wall clear bottom plates (Corning, Lowell, MA, USA) at a density of 30,000 cells per well. Transiently transfected CaV3.1HEK293 T cells were seeded into 384-well black wall clear bottom plates at a density of 60,000 cells per well. Once the cells reached 90%–95% confluence after 24 h, the media were removed from the wells and replaced with 20 μL of 10% calcium 4 dye (Molecular Devices, Sunnyvale, CA, USA) in HBSS-HEPES (containing 5 mM KCl, 10 mM HEPES, 140 mM NaCl, 10 mM glucose, and 0.5 mM CaCl2, pH 7.4) with 0.1% bovine serum albumin (BSA). The cells were incubated for 30 min at 37 °C in the presence of 5% carbon dioxide. Each well on the reagent plates for the first addition contained 15 μL different concentrations of compounds dissolved in HBSS-HEPES containing 0.1% BSA and <0.1% DMSO and was incubated for 20 min after loading. Positive and negative controls contained 15 μL of HBSS-HEPES (0.1% BSA) alone. The plates were placed in the FLIPR^TETRA (Molecular Devices, Sunnyvale, CA, USA) programmed to measure maximum fluorescence intensity following a second addition of the agonist 5 mM CaCl2. The data acquisition parameters were adjusted as follows: Baseline fluorescence of 1500–2000 arbitrary fluorescence units (AFU), emission wavelength of 515–575 nm, and excitation wavelength of 470–495 nm. HBSS-HEPES (0.1% BSA) was used in the second addition as a negative control. One fluorescence reading was taken before the second addition. Then the fluorescence readings were recorded every two seconds for 300 s. Raw fluorescence readings in the form of relative light units were converted to response over baseline using ScreenWorks® (Molecular Devices, version 3.2.0.14) software.
Data were plotted and analyzed using GraphPad Prism v7.0 (GraphPad Software Inc., San Diego, CA, USA).

T1 sequence (O43497 whole entry): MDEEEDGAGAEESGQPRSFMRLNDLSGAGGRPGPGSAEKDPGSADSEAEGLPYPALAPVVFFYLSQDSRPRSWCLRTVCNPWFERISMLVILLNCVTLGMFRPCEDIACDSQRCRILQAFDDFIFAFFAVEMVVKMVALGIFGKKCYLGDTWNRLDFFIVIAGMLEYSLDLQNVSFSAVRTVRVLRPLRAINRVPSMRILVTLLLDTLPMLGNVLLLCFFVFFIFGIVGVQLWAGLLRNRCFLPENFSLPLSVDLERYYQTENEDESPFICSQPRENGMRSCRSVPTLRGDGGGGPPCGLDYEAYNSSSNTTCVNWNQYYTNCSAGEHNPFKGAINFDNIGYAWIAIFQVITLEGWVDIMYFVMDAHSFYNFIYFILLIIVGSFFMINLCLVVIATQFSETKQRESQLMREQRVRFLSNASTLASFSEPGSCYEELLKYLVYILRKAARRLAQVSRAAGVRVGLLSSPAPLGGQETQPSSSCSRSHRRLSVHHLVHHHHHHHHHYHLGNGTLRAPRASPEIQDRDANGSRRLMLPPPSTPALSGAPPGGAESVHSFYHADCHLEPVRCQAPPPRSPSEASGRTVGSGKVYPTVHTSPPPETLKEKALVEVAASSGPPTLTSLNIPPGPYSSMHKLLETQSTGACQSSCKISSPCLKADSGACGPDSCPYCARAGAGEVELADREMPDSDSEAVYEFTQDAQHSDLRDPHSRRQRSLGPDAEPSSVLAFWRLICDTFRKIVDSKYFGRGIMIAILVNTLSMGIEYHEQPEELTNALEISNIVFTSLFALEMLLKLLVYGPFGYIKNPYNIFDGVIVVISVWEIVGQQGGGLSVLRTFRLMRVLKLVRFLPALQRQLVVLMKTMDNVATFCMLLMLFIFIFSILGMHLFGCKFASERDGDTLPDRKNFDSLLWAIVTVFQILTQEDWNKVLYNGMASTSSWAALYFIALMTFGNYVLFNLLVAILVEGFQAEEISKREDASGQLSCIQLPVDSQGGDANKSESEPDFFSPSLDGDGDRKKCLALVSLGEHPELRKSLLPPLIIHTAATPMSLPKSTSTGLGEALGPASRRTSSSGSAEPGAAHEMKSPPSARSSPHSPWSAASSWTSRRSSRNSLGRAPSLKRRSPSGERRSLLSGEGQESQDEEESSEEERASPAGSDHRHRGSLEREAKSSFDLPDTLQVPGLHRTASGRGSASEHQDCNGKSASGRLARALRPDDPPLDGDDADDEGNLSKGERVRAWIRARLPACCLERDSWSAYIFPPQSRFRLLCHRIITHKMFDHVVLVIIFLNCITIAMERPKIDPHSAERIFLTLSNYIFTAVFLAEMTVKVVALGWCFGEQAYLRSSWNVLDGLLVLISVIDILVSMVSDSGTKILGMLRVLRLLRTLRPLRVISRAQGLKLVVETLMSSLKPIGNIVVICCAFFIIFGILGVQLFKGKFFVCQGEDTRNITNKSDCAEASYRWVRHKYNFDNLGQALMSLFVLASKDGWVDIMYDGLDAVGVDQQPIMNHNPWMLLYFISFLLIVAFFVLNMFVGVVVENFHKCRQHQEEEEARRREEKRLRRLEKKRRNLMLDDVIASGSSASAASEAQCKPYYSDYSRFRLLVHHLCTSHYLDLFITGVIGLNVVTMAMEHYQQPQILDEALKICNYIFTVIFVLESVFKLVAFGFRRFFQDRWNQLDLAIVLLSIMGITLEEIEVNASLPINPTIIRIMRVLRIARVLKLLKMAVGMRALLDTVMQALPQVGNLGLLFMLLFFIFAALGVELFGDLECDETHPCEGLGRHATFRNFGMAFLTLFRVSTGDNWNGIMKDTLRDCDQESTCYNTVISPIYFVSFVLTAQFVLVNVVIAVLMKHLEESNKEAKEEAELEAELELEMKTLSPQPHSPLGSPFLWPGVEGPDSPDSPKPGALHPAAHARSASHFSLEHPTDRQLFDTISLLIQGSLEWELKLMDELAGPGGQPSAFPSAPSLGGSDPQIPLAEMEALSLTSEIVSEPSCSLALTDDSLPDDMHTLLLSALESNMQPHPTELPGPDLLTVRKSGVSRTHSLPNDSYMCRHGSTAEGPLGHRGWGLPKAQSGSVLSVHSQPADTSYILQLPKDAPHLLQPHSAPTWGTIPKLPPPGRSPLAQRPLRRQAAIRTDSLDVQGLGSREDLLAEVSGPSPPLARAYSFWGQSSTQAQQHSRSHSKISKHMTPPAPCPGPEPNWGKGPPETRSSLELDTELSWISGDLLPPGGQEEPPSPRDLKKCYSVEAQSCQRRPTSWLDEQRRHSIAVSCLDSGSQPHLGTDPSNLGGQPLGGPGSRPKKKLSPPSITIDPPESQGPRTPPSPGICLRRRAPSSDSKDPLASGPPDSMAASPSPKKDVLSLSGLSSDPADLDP

SMILES: COC(=O)[C@H](Cc1c[nH]c2ccccc12)NC(=O)C(C)(c1c[nH]c2ccccc12)c1c[nH]c2ccccc12 [Compound 3, Methyl (2,2-di(1H-indol-3-yl)propanoyl)-L-tryptophanate]
- IC50 (FLIPR window current assay, transiently transfected HEK293T, N = 3, mean ± SEM, read-out: IC50 CaV3.1 (LVA CaVs)): 58.6 ± 2.62 µM
- Emax (FLIPR, n = 3, read-out: Emax, inhibition for CaV3.1): 75.5%
